Laboratory results reported in US11453703B2, “Heterotandem bicyclic peptide complexes” (BicycleTX Limited, priority 2018, dated 2022).
pEC50, pKd: −log10 of the molar value.

Tests used:
[1] = test system: human PBMC co-cultured with 4T1-D02 (Nectin4+); experiment: Human PBMC-4T1 co-culture (cytokine release) assay; assay type: cell-based; settings: anti-CD3 stimulated PBMC, 48 hours
How it was run: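 Healthy-donor human PBMCs co-cultured 5:1 with murine Nectin-4-overexpressing 4T1-D02 cells, stimulated with 125 ng/ml soluble anti-CD3 (OKT3) plus test compounds. IL-2 and IFNγ in 48 h supernatants measured by HTRF and interpolated from standard curves; three donors, each in duplicate.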

CD137 [2] = target: T1, CD137 (Homo sapiens, UniProt Q07011); experiment: CD137 reporter assay, co-culture with Nectin-4 tumour cells; assay type: cell-based; design: host or cells: Jurkat reporter cells; settings: for Fold Induction over Background: tumour target Nectin4, co-culture with H1376, 6 h;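 on all read-outs here: jurkat reporter cells co-cultured with tumour cells and test article for 6 h, luminescence signal relative to Jurkat plus tumour cells lacking test article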
Protocol: Culture medium referred to as R1 media is prepared by adding 1% FBS to RPMI-1640 (component of Promega kit CS196005). Serial dilutions of test articles in R1 are prepared in a sterile 96 well-plate. Use 25 μl per well of test articles or R1 (as a background control) to designated wells in white cell culture plate. Tumour cells* are harvested and resuspended at a concentration of 400,000 cells/mL in R1 media. Twenty five (25) μL/well tumour cells are used in white cell culture plate. Jurkat cells (Promega kit CS196005, 0.5 mL) are thawed in the water bath and then added to 5 ml pre-warmed R1 medium. Twenty five (25) μL/well Jurkat cells are used in white cell culture plate. Incubate the cells and test articles for 6h at 37° C., 5% CO2. At the end of 6 h, add 75 μl/well Bio-Glo™ (Promega) and incubate for 10 min before reading luminescence in a plate reader (Clariostar, BMG). The fold change relative to cells (Jurkat cells+Cell line used in co-culture) is calculated and plotted in GraphPad Prism as log(agonist) vs response to determine EC50 (nM) and Fold Induction over background (Max)

human Nectin-4 protein = target: T2, human Nectin-4 protein (Homo sapiens, UniProt Q96NY8); experiment: Nectin-4 Biacore (SPR) binding assay; settings: biotinylated human Nectin-4, 25° C.
T2 construct: Human Nectin-4 (residues Gly32-Ser349); host or cells: Sf21 insect cells (baculovirus, pFastbac-1)
T2 sequence (Q96NY8 32-349): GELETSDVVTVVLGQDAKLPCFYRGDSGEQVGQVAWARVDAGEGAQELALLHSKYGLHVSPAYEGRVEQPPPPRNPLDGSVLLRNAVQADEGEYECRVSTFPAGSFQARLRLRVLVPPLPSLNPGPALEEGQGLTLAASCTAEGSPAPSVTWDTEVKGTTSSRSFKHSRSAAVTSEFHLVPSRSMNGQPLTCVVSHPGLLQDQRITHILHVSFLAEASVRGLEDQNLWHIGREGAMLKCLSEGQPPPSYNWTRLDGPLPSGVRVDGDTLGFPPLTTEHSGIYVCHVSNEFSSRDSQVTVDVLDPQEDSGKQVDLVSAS
Protocol: Biacore experiments were performed to determine ka (M^−1s^−1), kd (s^−1), KD (nM) values of heterotandem peptides binding to human Nectin-4 protein (obtained from Charles River). Human Nectin-4 (residues Gly32-Ser349; NCBI RefSeq: NP_112178.2) with a gp67 signal sequence and C-terminal FLAG tag was cloned into pFastbac-1 and baculovirus made using standard Bac-to-Bac™ protocols (Life Technologies). Sf21 cells at 1×10^6 ml^−1 in Excell-420 medium (Sigma) at 27° C. were infected at an MOI of 2 with a P1 virus stock and the supernatant harvested at 72 hours. The supernatant was batch bound for 1 hour at 4° C. with Anti-FLAG M2 affinity agarose resin (Sigma) washed in PBS and the resin subsequently transferred to a column and washed extensively with PBS. The protein was eluted with 100 μg/ml FLAG peptide. The eluted protein was concentrated to 2 ml and loaded onto an S-200 Superdex column (GE Healthcare) in PBS at 1 ml/min. 2 ml fractions were collected and the fractions containing Nectin-4 protein were concentrated to 16 mg/ml.
The protein was extensively desalted to remove uncoupled biotin using spin columns into PBS.
For analysis of peptide binding, a Biacore 3000 instrument was used with a CM5 chip (GE Healthcare). Streptavidin was immobilized on the chip using standard amine-coupling chemistry at 25° C. with HBS-N (10 mM HEPES, 0.15 M NaCl, pH 7.4) as the running buffer. Briefly, the carboxymethyl dextran surface was activated with a 7 minute injection of a 1:1 ratio of 0.4 M 1-ethyl-3-(3-dimethylaminopropyl) carbodiimide hydrochloride (EDC)/0.1 M N-hydroxy succinimide (NHS) at a flow rate of 10 μl/min. For capture of streptavidin, the protein was diluted to 0.2 mg/ml in 10 mM sodium acetate (pH 4.5) and captured by injecting 120 μl of streptavidin onto the activated chip surface. Residual activated groups were blocked with a 7 minute injection of 1 M ethanolamine (pH 8.5) and biotinylated Nectin-4 captured to a level of 1,200-1,800 RU. Buffer was changed to PBS/0.05% Tween 20 and a dilution series of the peptides was prepared in this buffer with a final DMSO concentration of 0.5%. The top peptide concentration was 100 nM with 6 further 2-fold dilutions. The SPR analysis was run at 25° C. at a flow rate of 50 μl/min with 60 seconds association and dissociation between 400 and 1,200 seconds depending upon the individual peptide. Data were corrected for DMSO excluded volume effects. All data were double-referenced for blank injections and reference surface using standard processing procedures and data processing and kinetic fitting were performed using Scrubber software, version 2.0c (BioLogic Software). Data were fitted using simple 1:1 binding model allowing for mass transport effects where appropriate.

CD137 [3] = target: T1, CD137; experiment: CD137 Biacore (SPR) binding assay; design: purchased R&D systems; settings: biotinylated human CD137, 25° C.
How it was run: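 Biotinylated human CD137 captured (270-1500 RU) on streptavidin-coupled dextran chip; peptides up to 500 nM in PBS/0.05% Tween 20, 0.5% DMSO, at 25°C, 60 s association, 900 s dissociation. Double-referenced data fitted to 1:1 binding model, with mass transport where appropriate.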

T1 sequence (Q07011 24-255): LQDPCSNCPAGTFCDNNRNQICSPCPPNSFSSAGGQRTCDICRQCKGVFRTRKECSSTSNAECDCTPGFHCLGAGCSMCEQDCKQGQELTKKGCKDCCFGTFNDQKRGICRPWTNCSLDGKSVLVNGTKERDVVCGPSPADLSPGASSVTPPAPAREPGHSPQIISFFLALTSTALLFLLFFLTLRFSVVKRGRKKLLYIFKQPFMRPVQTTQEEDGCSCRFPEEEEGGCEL

Row | Structure (SMILES) | max IFN-y [1] | fold induction at 0.1 µM (CD137 [2]; read-out: Fold Induction over Background at 100 nM) | pKd (human Nectin-4 protein) | pEC50 (CD137 [2]) | Fold Induction over Background (CD137 [2]) | pKd (CD137 [3])
1 | CCCC[C@@H]1NC(=O)[C@H](Cc2ccc(O)cc2)NC(=O)[C@@H]2CCCN2C(=O)[C@H](CC(=O)O)NC(=O)[C@H](C)NC(=O)[C@H](Cc2ccccc2)NC(=O)[C@@H]2CSCCC(=O)N3CN(CN(C3)C(=O)CCSC[C@@H](C(=O)N[C@@H](CNC(=O)CCOCCOCCOCCOCCOCCOCCOCCOCCOCCOCCOCCOCCn3cc(CCC(=O)NCCC(=O)N(C)CC(=O)N(C)CC(=O)N(C)CC(=O)N(C)CC(=O)N(C)CC(=O)N(C)CC(=O)N(C)CC(=O)N(C)CC(=O)N(C)CC(=O)N(C)CC(=O)N[C@H]4CSCCC(=O)N5CN6CN(C5)C(=O)CCSC[C@H](NC(=O)[C@@H](CC(=O)O)NC(=O)[C@H](Cc5cccc7ccccc57)NC(=O)[C@@H]5CCCN5C4=O)C(=O)N[C@@H](CCSC)C(=O)N[C@@H](CCCCNC(=N)N)C(=O)N[C@@H](CC(=O)O)C(=O)N[C@H](Cc4c[nH]c5ccccc45)C(=O)N[C@@H](CO)C(=O)N[C@@H]([C@@H](C)O)C(=O)N4CCC[C@H]4C(=O)N4C[C@H](O)C[C@H]4C(=O)N[C@H](Cc4c[nH]c5ccccc45)C(=O)N[C@H](C(N)=O)CSCCC6=O)nn3)C(N)=O)NC1=O)C(=O)CCSC[C@H](NC(=O)[C@H](C)NC(C)=O)C(=O)N[C@@H]([C@@H](C)CC)C(=O)N[C@@H](CCC(=O)O)C(=O)N[C@@H](CCC(=O)O)C(=O)NCC(=O)N[C@@H](CCC(N)=O)C(=O)N[C@@H](Cc1ccc(O)cc1)C(=O)N2 [BCY9350] | No Activity up to 1 μM | < 2 | < 6.70 |  |  | 
2 | CCCC[C@@H]1NC(=O)[C@H](Cc2ccc(O)cc2)NC(=O)[C@@H]2CCCN2C(=O)[C@H](CC(=O)O)NC(=O)[C@H](C)NC(=O)[C@H](Cc2ccccc2)NC(=O)[C@@H]2CSCCC(=O)N3CN(CN(C3)C(=O)CCSC[C@@H](C(=O)N[C@@H](CNC(=O)CCc3cn(CCCNC(=O)CN(C)C(=O)CN(C)C(=O)CN(C)C(=O)CN(C)C(=O)CN(C)C(=O)COCCOCCOCCOCCOCCNC(=O)N[C@H]4CSCCC(=O)N5CN6CN(C5)C(=O)CCSC[C@H](NC(=O)[C@@H](CC(=O)O)NC(=O)[C@H](Cc5cccc7ccccc57)NC(=O)[C@@H]5CCCN5C4=O)C(=O)N[C@@H](CCSC)C(=O)N[C@@H](CCCCNC(=N)N)C(=O)N[C@@H](CC(=O)O)C(=O)N[C@@H](Cc4c[nH]c5ccccc45)C(=O)N[C@@H](CO)C(=O)N[C@@H]([C@@H](C)O)C(=O)N4CCC[C@H]4C(=O)N4C[C@H](O)C[C@H]4C(=O)N[C@@H](Cc4c[nH]c5ccccc45)C(=O)N[C@H](C(N)=O)CSCCC6=O)nn3)C(N)=O)NC1=O)C(=O)CCSC[C@H](NC(=O)[C@H](C)NC(C)=O)C(=O)N[C@@H]([C@@H](C)CC)C(=O)N[C@@H](CCC(=O)O)C(=O)N[C@@H](CCC(=O)O)C(=O)NCC(=O)N[C@@H](CCC(N)=O)C(=O)N[C@@H](Cc1ccc(O)cc1)C(=O)N2 [BCY9410] |  |  | 8.83 | 8.89 | 24 fold | 7.18
3 | CCCC[C@@H]1NC(=O)[C@H](Cc2ccc(O)cc2)NC(=O)[C@@H]2CCCN2C(=O)[C@H](CC(=O)O)NC(=O)[C@H](C)NC(=O)[C@H](Cc2ccccc2)NC(=O)[C@@H]2CSCCC(=O)N3CN(CN(C3)C(=O)CCSC[C@@H](C(=O)N[C@@H](CNC(=O)CCc3cn(CCCNC(=O)CN(C)C(=O)CN(C)C(=O)CN(C)C(=O)CN(C)C(=O)CN(C)C(=O)CN(C)C(=O)CN(C)C(=O)CN(C)C(=O)CN(C)C(=O)CN(C)C(=O)CN(C)C(=O)CN(C)C(=O)CN(C)C(=O)CN(C)C(=O)CN(C)C(=O)COCCOCCOCCOCCOCCNC(=O)N[C@H]4CSCCC(=O)N5CN6CN(C5)C(=O)CCSC[C@H](NC(=O)[C@@H](CC(=O)O)NC(=O)[C@H](Cc5cccc7ccccc57)NC(=O)[C@@H]5CCCN5C4=O)C(=O)N[C@@H](CCSC)C(=O)N[C@@H](CCCCNC(=N)N)C(=O)N[C@@H](CC(=O)O)C(=O)N[C@@H](Cc4c[nH]c5ccccc45)C(=O)N[C@@H](CO)C(=O)N[C@@H]([C@@H](C)O)C(=O)N4CCC[C@H]4C(=O)N4C[C@H](O)C[C@H]4C(=O)N[C@@H](Cc4c[nH]c5ccccc45)C(=O)N[C@H](C(N)=O)CSCCC6=O)nn3)C(N)=O)NC1=O)C(=O)CCSC[C@H](NC(=O)[C@H](C)NC(C)=O)C(=O)N[C@@H]([C@@H](C)CC)C(=O)N[C@@H](CCC(=O)O)C(=O)N[C@@H](CCC(=O)O)C(=O)NCC(=O)N[C@@H](CCC(N)=O)C(=O)N[C@@H](Cc1ccc(O)cc1)C(=O)N2 [BCY9409] |  |  | 8.78 | 8.92 | 24 fold | 7.01
4 | CCCC[C@@H]1NC(=O)[C@H](Cc2ccc(O)cc2)NC(=O)[C@@H]2CCCN2C(=O)[C@H](CC(=O)O)NC(=O)[C@H](C)NC(=O)[C@H](Cc2ccccc2)NC(=O)[C@@H]2CSCCC(=O)N3CN(CN(C3)C(=O)CCSC[C@@H](C(=O)N[C@@H](CNC(=O)CCc3cn(CCCNC(=O)CN(C)C(=O)CN(C)C(=O)CN(C)C(=O)CN(C)C(=O)CN(C)C(=O)CN(C)C(=O)CN(C)C(=O)CN(C)C(=O)CN(C)C(=O)CN(C)C(=O)COCCOCCOCCOCCOCCOCCOCCOCCOCCOCCNC(=O)N[C@H]4CSCCC(=O)N5CN6CN(C5)C(=O)CCSC[C@H](NC(=O)[C@@H](CC(=O)O)NC(=O)[C@H](Cc5cccc7ccccc57)NC(=O)[C@@H]5CCCN5C4=O)C(=O)N[C@@H](CCSC)C(=O)N[C@@H](CCCCNC(=N)N)C(=O)N[C@@H](CC(=O)O)C(=O)N[C@@H](Cc4c[nH]c5ccccc45)C(=O)N[C@@H](CO)C(=O)N[C@@H]([C@@H](C)O)C(=O)N4CCC[C@H]4C(=O)N4C[C@H](O)C[C@H]4C(=O)N[C@@H](Cc4c[nH]c5ccccc45)C(=O)N[C@H](C(N)=O)CSCCC6=O)nn3)C(N)=O)NC1=O)C(=O)CCSC[C@H](NC(=O)[C@H](C)NC(C)=O)C(=O)N[C@@H]([C@@H](C)CC)C(=O)N[C@@H](CCC(=O)O)C(=O)N[C@@H](CCC(=O)O)C(=O)NCC(=O)N[C@@H](CCC(N)=O)C(=O)N[C@@H](Cc1ccc(O)cc1)C(=O)N2 [BCY9408] |  |  | 8.80 | 8.96 | 20 fold | 6.98
5 | CCCC[C@@H]1NC(=O)[C@H](Cc2ccc(O)cc2)NC(=O)[C@@H]2CCCN2C(=O)[C@H](CC(=O)O)NC(=O)[C@H](C)NC(=O)[C@H](Cc2ccccc2)NC(=O)[C@@H]2CSCCC(=O)N3CN(CN(C3)C(=O)CCSC[C@@H](C(=O)N[C@@H](CNC(=O)CCc3cn(CCOCCOCCOCCOCCOCCNC(=O)N[C@H]4CSCCC(=O)N5CN6CN(C5)C(=O)CCSC[C@H](NC(=O)[C@@H](CC(=O)O)NC(=O)[C@H](Cc5cccc7ccccc57)NC(=O)[C@@H]5CCCN5C4=O)C(=O)N[C@@H](CCSC)C(=O)N[C@@H](CCCCNC(=N)N)C(=O)N[C@@H](CC(=O)O)C(=O)N[C@@H](Cc4c[nH]c5ccccc45)C(=O)N[C@@H](CO)C(=O)N[C@@H]([C@@H](C)O)C(=O)N4CCC[C@H]4C(=O)N4C[C@H](O)C[C@H]4C(=O)N[C@@H](Cc4c[nH]c5ccccc45)C(=O)N[C@H](C(N)=O)CSCCC6=O)nn3)C(N)=O)NC1=O)C(=O)CCSC[C@H](NC(=O)[C@H](C)NC(C)=O)C(=O)N[C@@H]([C@@H](C)CC)C(=O)N[C@@H](CCC(=O)O)C(=O)N[C@@H](CCC(=O)O)C(=O)NCC(=O)N[C@@H](CCC(N)=O)C(=O)N[C@@H](Cc1ccc(O)cc1)C(=O)N2 [BCY9411] |  |  | 8.83 | 7.85 | 41 fold | 7.15
